From PMC4494771, “Synthesis, structure, and biological activity of novel heterocyclic sulfonyl-carboximidamides” (Monatshefte Fur Chemie, 2013)
In brackets after ≈: the same amount, converted by molar mass.

System: M. tuberculosis sp. 210
Assay: Tuberculostatic activity, classical test-tube method of successive dilution
Format: cell-based
Details: Mycobacterium tuberculosis; sp. 210, wild strain resistant to PAS, INH, ETB, RFP

| Compound | MIC [µg/mL] |
| --- | --- |
| NC(=NS(=O)(=O)c1ccccc1Cl)c1ncccn1 [Compound 7, N′-[(2-Chlorophenyl)sulfonyl]pyrimidine-2-carboximidamide] | 50 (≈ 168 µM) |
| NC(=NS(=O)(=O)c1cnccc1Cl)c1ccccn1 [Compound 2, N′-[(4-Chloropyridin-3-yl)sulfonyl]-2-pyridinecarboximidamide] | 50 (≈ 168 µM) |
| NC(=NS(=O)(=O)c1cnccc1Cl)c1cnccn1 [Compound 10, N′-[(4-Chloropyridin-3-yl)sulfonyl]pyrazine-2-carboximidamide] | 50 (≈ 168 µM) |
| NNC(=O)c1ccncc1 [INH, isoniazid, reference compound] | 1.1 (≈ 8.02 µM) |
| NC(=NS(=O)(=O)c1cnccc1Cl)c1ncccn1 [Compound 8, N′-[(4-Chloropyridin-3-yl)sulfonyl]pyrimidine-2-carboximidamide] | 50 (≈ 168 µM) |
